In patent US20250381118A1, “SKIN TREATMENT METHODS” (Amazentis SA, priority 2017, published 2025):

Assays:
[1] = Solubility (water; topical cream); format: physicochemical; settings: topical cream including lipophilic excipients, e.g. an oil and/or a medium chain triglyceride
[2] = system: EpiDerm™ tissues (EPI-200, normal human-derived epidermal keratinocytes); test: EpiDerm skin cell viability (MTT) assay; format: cell-based; settings: 96 hours; for Relative cell viability (% of negative control): basolateral, 90% = irritant threshold
Procedure: Pre-screen treatment conditions: A good skin lightener should inhibit melanin synthesis but not cause cytotoxicity to the tissue. The impact of Urolithin A on skin cells viability was performed with the EpiDerm tissue (EPI-200). The reconstructed human epidermal model EpiDerm™ (EPI-200, MatTek, Ashland, USA) consists of normal human-derived epidermal keratinocytes, which have been cultured to form a multilayered highly differentiated model of the human epidermis.
Tissues were grown in maintenance medium (EPI-100-LLMM available from the MatTek Corporation). Treatment was done basolaterally, i.e. with the test compounds dissolved in the maintenance medium, for a total duration of 96 hours. Two EpiDerm™ tissues (n=2) were used per condition, which were 1) water, 2) DMSO 0.5%, 3) Urolithin A 25 μM, 4) Urolithin A 50 μM and 5) Urolithin A 100 μM. Maintenance medium added or not in Urolithin A or DMSO was refreshed at 48 hours.
Cell viability is measured by dehydrogenase conversion of MTT [(3-4,5-dimethylthiazole-2-yl) 2,5-diphenyltetrazoliumbromide], present in cell mitochondria, into a blue formazan salt that is quantitatively measured after extraction from tissues. The MTT assay was performed by transferring the tissues to 24-well plates containing MTT medium (1 mg/ml). After a 3 hr MTT incubation, the blue formazan salt formed by cellular mitochondria was extracted with 2.0 ml/tissue of isopropanol (extractant solution, part #MTT-100-EXT) and the optical density of the extracted formazan was determined using a spectrophotometer at 570 nm. Relative cell viability was calculated for each tissue as % of the mean of the negative control tissues.

[3] = system: MelanoDerm™ tissues (MEL-300-B); test: MelanoDerm macroscopic analysis of pigmentation (top view); format: cell-based, human; settings: day 14
Procedure: (§1) The MelanoDerm™ cultures from MatTek Corporation (Ashland, Massachusetts, USA) are a pigmented 3D-Living Skin Equivalent model. MEL-300 tissues are obtained by seeding keratinocytes with melanocytes. MEL-300-B cultures contain melanocytes derived from a donor tissue and are used for the evaluation of skin lightening potential. MEL-300-B were prepared in a long life maintenance medium (EPI-100-LLMM available from the MatTek Corporation) and cultured for a total of 14 days. A total of four tissue replicates (n=4) was used per group.
(§2) Untreated tissue was used as negative control. Maintenance medium was refreshed every 2 days.
Urolithin A was applied to the samples by addition to the maintenance medium at a final concentration of 50 and 100 µM, prepared from a stock solution at 50 mM in DMSO. A vehicle control was prepared using DMSO at 0.2% in maintenance medium. Maintenance medium added in Urolithin A or DMSO was refreshed every 2 days. Kojic acid was used as a positive control at 2% in 50:50 butylene glycol: water and applied topically (i.e. on the stratum corneum, the outermost layer of the epidermis, of the MelanoDerm™ sample). Kojic acid is a well-known inhibitor of tyrosinase, a key enzyme that is responsible for melanogenesis in melanoma and melanocytes, and is used to treat hyperpigmentation, melasma, and wrinkle in cosmetics products. Every 2 days, tissues were rinsed with sterile PBS to remove Kojic acid prior to adding a fresh preparation of kojic acid at 2% in 50:50 butylene glycol: water. Maintenance medium was changed at the same time. • a. At day 14, all tissues were photographed by top view for macroscopic analysis of pigmentation using a Nikon Eclipse Ti microscope. […] It is also visible that tissues treated with Urolithin A at 50 and 100 μM are as light as the tissues treated with the positive control Kojic acid applied topically at 2%. • b. The lightness of the samples was assessed by measuring the L value using the Konica Minolta Color Spectrophotometer (CM-700d) at day 0, 4, 7, 11 and 14. The L value tells how light or dark the color is, with black corresponding to L=0 and white to L=100. FIG. 3 represents the L values measured in the difference samples. […] At the end of the treatment, the L-values of tissues treated with Urolithin A and Kojic acid are equivalent, confirming what is visible in FIG. 2. […] Three tissues per group were used for the quantification of melanin. Tissues were first incubated in PBS to remove any phenol red remaining from the maintenance medium. Tissues were placed in a 1.7 ml microfuge tube with 500 μl of Solvable™ (Tissue and Gel Solubilizer 0.5 M-Packard BioScience Co. Catalogue No. 6NE9100) and incubated at 95° C. overnight along with melanin standards. […]

rodents = settings: cited from earlier work
[4] = Particle size distribution after micronisation (Malvern Mastersizer 2000); format: physicochemical; settings: micronized, spiral jet mill
Excerpt: Urolithin A was micronized using an MC50 Spiral 20 Jetmill (Valortecs SAS, Blodelsheim, France), using filtered nitrogen, with a feed rate of 240 g/hr, a Venturi pressure of 12 bar, and a mill pressure of 12 bar. Urolithin A was micronized to give urolithin A having a particle size distribution of D90=9 μm to 15 μm and D50=2 to 9 μm. The actual particle size distribution was D90=11.5 μm, D50=3.9 μm, D10=0.7 μm, measured using a Malvern Mastersizer 2000.

[5] = system: MelanoDerm™ tissues (MEL-300-B); test: MelanoDerm lightness, L value by color spectrophotometer; format: cell-based, human; settings: for L value versus negative control group: from day 4 until day 14
Procedure: as §1, §2
(§3) Urolithin A was applied to the samples by addition to the maintenance medium at a final concentration of 50 and 100 µM, prepared from a stock solution at 50 mM in DMSO. A vehicle control was prepared using DMSO at 0.2% in maintenance medium. Maintenance medium added in Urolithin A or DMSO was refreshed every 2 days. Kojic acid was used as a positive control at 2% in 50:50 butylene glycol: water and applied topically (i.e. on the stratum corneum, the outermost layer of the epidermis, of the MelanoDerm™ sample). Kojic acid is a well-known inhibitor of tyrosinase, a key enzyme that is responsible for melanogenesis in melanoma and melanocytes, and is used to treat hyperpigmentation, melasma, and wrinkle in cosmetics products. Every 2 days, tissues were rinsed with sterile PBS to remove Kojic acid prior to adding a fresh preparation of kojic acid at 2% in 50:50 butylene glycol: water. Maintenance medium was changed at the same time. • a. At day 14, all tissues were photographed by top view for macroscopic analysis of pigmentation using a Nikon Eclipse Ti microscope. […] It is also visible that tissues treated with Urolithin A at 50 and 100 μM are as light as the tissues treated with the positive control Kojic acid applied topically at 2%. • b. The lightness of the samples was assessed by measuring the L value using the Konica Minolta Color Spectrophotometer (CM-700d) at day 0, 4, 7, 11 and 14. The L value tells how light or dark the color is, with black corresponding to L=0 and white to L=100. FIG. 3 represents the L values measured in the difference samples. […] At the end of the treatment, the L-values of tissues treated with Urolithin A and Kojic acid are equivalent, confirming what is visible in FIG. 2. […] Three tissues per group were used for the quantification of melanin. Tissues were first incubated in PBS to remove any phenol red remaining from the maintenance medium. Tissues were placed in a 1.7 ml microfuge tube with 500 μl of Solvable™ (Tissue and Gel Solubilizer 0.5 M-Packard BioScience Co. Catalogue No. 6NE9100) and incubated at 95° C. overnight along with melanin standards. Melanin standards were prepared by dissolving melanin (Sigma catalog number M8631) in Solvable™ at 1 mg/ml to make stock solution.

[6] = system: MelanoDerm™ tissues (MEL-300-B); test: MelanoDerm quantification of melanin content; format: cell-based, human; settings: 14 days; for Melanin content versus Kojic acid at 2%: 100 μM, Student t test
Procedure: as §1, §2, §3
Following overnight incubation, samples were centrifuged at 13000 rpm for 5 minutes to pellet any insoluble material. 200 μl of each sample were transferred to a 96-well plate and read at 490 nm. FIG. 4 represents the results for the melanin content expressed in μg. Statistical significance was performed using a one-way ANOVA, followed by a Dunnett post-hoc test for multiple comparison of each group against the negative control.

Q: Which results are given for `O=c1oc2cc(O)ccc2c2ccc(O)cc12` [Urolithin A]?
A: Solubility in topical cream composition [1]: especially soluble; Relative cell viability (% of negative control) ([2]; Urolithin A 25 μM): higher than 90%; Relative cell viability (% of negative control) ([2]; Urolithin A 50 μM): higher than 90%; Relative cell viability (% of negative control) ([2]; Urolithin A 100 μM): higher than 90%; Effect on skin cell viability / cytotoxicity ([2]; at the tested concentrations (25, 50, 100 μM)): does not impair skin cell viability; Macroscopic pigmentation versus negative control and DMSO 0.2% group ([3]; 50 μM in maintenance medium): consistently lighter; Macroscopic pigmentation versus positive control Kojic acid 2% topical ([3]; 50 μM in maintenance medium): as light as; Macroscopic pigmentation versus negative control and DMSO 0.2% group ([3]; 100 μM in maintenance medium): consistently lighter; Macroscopic pigmentation versus positive control Kojic acid 2% topical ([3]; 100 μM in maintenance medium): as light as; Mitophagy (rodents; in vivo): induces mitophagy; Lifespan (rodents; rodents): increases lifespan; Particle size D10 [4]: 0.7 μm; Particle size D50 [4]: 3.9 μm; Particle size D90 [4]: 11.5 μm; Speed of tissue-lightening effect versus Kojic acid ([5]; 50 μM): faster tissue-lightening effects; L value versus negative control group ([5]; 50 μM): significantly higher; Speed of tissue-/skin-lightening effect versus Kojic acid ([5]; 100 μM): faster tissue-lightening effects; L value versus negative control group ([5]; 100 μM): significantly higher; Speed of tissue-/skin-lightening effect versus Kojic acid ([5]; 100 μM, listed as urolithin A): faster skin-lightening effects; L value versus tissues treated with Kojic acid ([5]; Urolithin A 50 or 100 μM, day 4 and 7): higher L value; L value versus tissues treated with Kojic acid ([5]; end of the treatment (day 14)): equivalent; Decrease of melanin content compared to the negative control ([6]; 50 μM in maintenance medium): 65%; Decrease of melanin content compared to the negative control ([6]; 100 μM in maintenance medium): 67%; Melanin content versus Kojic acid at 2% [6]: significantly lower; Melanin content versus Kojic acid at 2% ([6]; listed as urolithin A): greater decrease in melanin content

Q: Which “Decrease of melanin content compared to the negative control” value ([6]; 2% in 50:50 butylene glycol:water, applied topically) does the source give for `O=c1cc(CO)occ1O` [Kojic acid, reference compound] here?
A: Its value is 62%.
